Measurements: patent publication US11352322B2, “Cyclopropyl-amide compounds as dual LSD1/HDAC inhibitors” (Jubilant Epicore LLC, priority 2016, dated 2022)
Counter-ions that a name gives are not always drawn. Like-named read-outs stand apart in the source and are kept apart here.

Experiments:
[1] = Metabolic stability in liver microsomes, MLM; details: 1 μM, NADPH
Experimental: (§1) The microsomal suspension was prepared by adding liver microsomes to 100 mM potassium phosphate buffer (pH7.4) to give a final protein concentration of 0.5 mg/mL. The stock solution of NCE (10 mM in DMSO) was added to the microsomes to provide a final concentration of 1 μM. […] Samples were vortexed and centrifuged at 5,000 rpm for 10 min to remove proteins. Supernatant were analyzed on LC-MS/MS.

[2] = Metabolic stability in liver microsomes, HLM; details: 1 μM, NADPH
Experimental: as §1

[3] = tested on: MM1S; experiment: Anticancer activity: Alamar Blue assay, MM1S; assay type: cell-based; details: Homo sapiens, MM1.S, read-out: MM1S EC50

Row | SMILES | Metabolic stability MLM % remaining in 30 min [1] | Metabolic stability HLM % remaining in 30 min [2] | EC50 [3] | EC50 ([3]; MM1S cells)
1 | O=C(/C=C/c1ccc(CNC2CC2c2ccc(C3CC3)cc2)cc1)NO (stereo not drawn) [Example 1, (E)-3(4(((2(4cyclopropylphenyl)cyclopropl)amino)methyl)phenyl)-N-hydroxyacrylamide] | 5% | 21% | – | –
2 | O=C(/C=C/c1ccc(CNC2CC2c2ccc(F)cc2)cc1)NO (stereo not drawn) [Example 2, (E)-3-(4-{[2-(4-Fluoro-phenyl)-cyclopropylamino]-methyl}-phenyl)-N-hydroxy-acrylamide TFA Salt] | 19% | 41% | – | –
3 | O=C(/C=C/c1ccc(CNC2CC2c2ccc(OCc3ccc(F)cc3)cc2)cc1)NO (stereo not drawn) [Example 3, (E)-3-(4-(((2-(4-((4-fluorobenzyl)oxy)phenyl)cyclopropyl)amino)methyl)phenyl)-N-hydroxyacrylamide TFA Salt] | < 5% | 65% | 104 nM | –
4 | Cc1noc(C)c1-c1ccc(C2CC2NCc2ccc(/C=C/C(=O)NO)cc2)cc1 (stereo not drawn) [Example 6, (E)-3-(4-(((2-(4-(3,5-dimethylisoxazol-4-yl)phenyl)cyclopropyl)amino)methyl)phenyl)-N-hydroxyacrylamide TFA Salt] | < 5% | 44% | 34 nM | –
5 | O=C(NO)c1cnc(N2CCC(NC3CC3c3ccccc3)CC2)nc1 (stereo not drawn) [Example 9, 2-[4-(2-Phenyl-cyclopropylamino)-piperidin-1-yl]-pyrimidine-5-carboxylic Acid Hydroxyamide TFA Salt] | 50% | 65% | 4 nM | –
6 | O=C(NO)c1cnc(N2CCC(NC3CC3c3ccc(F)cc3)CC2)nc1 (stereo not drawn) [Example 10, 2-{4-[2-(4-Fluoro-phenyl)-cyclopropylamino]-piperidin-1-yl}-pyrimidine-5-carboxylic acid hydroxyamide TFA salt] | 55% | 81% | 9 nM | –
7 | O=C(NO)c1cnc(N2CCC(CNC3CC3c3ccc(OCc4ccc(F)cc4)cc3)CC2)nc1 (stereo not drawn) [Example 11, 2-(4-(((2-(4-((4-fluorobenzyl)oxy)phenyl)cyclopropyl)amino)methyl)piperidin-1-yl)-N-hydroxypyrimidine-5-carboxamide TFA Salt] | 14% | 44% | 18 nM | –
8 | O=C(NO)c1cnc(N2CCC(NC3CC3c3ccc(-c4ccc(Cl)cc4)cc3)CC2)nc1 (stereo not drawn) [Example 13, 2-(4-((2-(4′-chloro-[1,1′-biphenyl]-4-yl)cyclopropyl)amino)piperidin-1-yl)-N-hydroxypyrimidine-5-carboxamide TFA Salt] | 23% | 57% | 24 nM | –
9 | O=C(NO)c1cnc(N2CCC(CNC3CC3c3ccc(-c4ccc(Cl)cc4)cc3)CC2)nc1 (stereo not drawn) [Example 14, 2-(4-(((2-(4′-chloro-[1,1′-biphenyl]-4-yl)cyclopropyl)amino)methyl)piperidin-1-yl)-N-hydroxypyrimidine-5-carboxamide TFA Salt] | 82% | 88% | 8 nM | –
10 | Cc1noc(C)c1-c1ccc(C2CC2NCC2CCN(c3ncc(C(=O)NO)cn3)CC2)cc1 (stereo not drawn) [Example 16, 2-(4-(((2-(4-(3,5-dimethylisoxazol-4-yl)phenyl)cyclopropyl)amino)methyl)piperidin-1-yl)-N-hydroxypyrimidine-5-carboxamide TFA Salt] | 25% | 47% | 17 nM | –
11 | O=C(NO)c1cnc(N2CCC(CNC3CC3c3ccc(-c4cncnc4)cc3)CC2)nc1 (stereo not drawn) [Example 17, N-hydroxy-2-(4-(((2-(4-(pyrimidin-5-yl)phenyl)cyclopropyl)amino)methyl)piperidin-1-yl)pyrimidine-5-carboxamide TFA Salt] | 57% | 69% | 17 nM | –
12 | COc1ccc(C2CC2NCC2CCN(c3ncc(C(=O)NO)cn3)CC2)cc1 (stereo not drawn) [Example 18, N-hydroxy-2-(4-(((2-(4-methoxyphenyl)cyclopropyl)amino)methyl)piperidin-1-yl)pyrimidine-5-carboxamide TFA Salt] | 28% | 41% | 3 nM | –
13 | COc1ccc(C2CC2NC2CCN(c3ncc(C(=O)NO)cn3)CC2)cc1 (stereo not drawn) [Example 19, N-hydroxy-2-(4-((2-(4-methoxyphenyl)cyclopropyl)amino)piperidin-1-yl)pyrimidine-5-carboxamide TFA Salt] | 71% | 83% | 7 nM | –
14 | O=C(NO)c1cnc(N2CCn3cc(CNC4CC4c4ccccc4)nc3C2)nc1 (stereo not drawn) [Example 23, N-hydroxy-2-(2-(((2-phenylcyclopropyl)amino)methyl)-5,6-dihydroimidazo[1,2-a]pyrazin-7(8H)-yl)pyrimidine-5-carboxamide TFA Salt] | 85% | 95% | 11 nM | –
15 | COc1ccc(C2CC2NCc2cn3c(n2)CN(c2ncc(C(=O)NO)cn2)CC3)cc1 (stereo not drawn) [Example 24, N-hydroxy-2-(2-(((2-(4-methoxyphenyl)cyclopropyl)amino)methyl)-5,6-dihydroimidazo[1,2-a]pyrazin-7(8H)-yl)pyrimidine-5-carboxamide TFA Salt] | 74% | 71% | 9 nM | –
16 | O=C(NO)c1cnc(N2CCn3cc(CNC4CC4c4ccc(F)cc4)nc3C2)nc1 (stereo not drawn) [Example 25, 2-(2-(((2-(4-fluorophenyl)cyclopropyl)amino)methyl)-5,6-dihydroimidazo[1,2-a]pyrazin-7(8H)-yl)-N-hydroxypyrimidine-5-carboxamide TFA Salt] | 85% | 75% | 11 nM | –
17 | O=C(NO)c1cccc(CNC2CC2c2ccc(Br)cc2)c1 (stereo not drawn) [Example 26, 3-(((2-(4-bromophenyl)cyclopropyl)amino)methyl)-N-hydroxybenzamide TFA Salt] | 13% | 30% | – | –
18 | O=C(CCCCCNC1CC1c1ccccc1)NO (stereo not drawn) [Example 29, N-hydroxy-6-((2-phenylcyclopropyl)amino)hexanamide TFA Salt] | 90% | > 95% | – | –
19 | O=C(NO)c1ccc(CCCNC2CC2c2ccc(F)cc2)cc1 (stereo not drawn) [Example 30, 4-(3-((2-(4-fluorophenyl)cyclopropyl)amino)propyl)-N-hydroxybenzamide TFA Salt] | 51% | 16% | 45 nM | –
20 | O=C(CCCCCCNC(=O)c1ccc(CNC2CC2c2ccccc2)cc1)NO (stereo not drawn) [Example 31, N-(6-Hydroxycarbamoyl-hexyl)-4-[(2-phenyl-cyclopropylamino)-methyl]-benzamide TFA Salt] | 18% | 39% | – | –
21 | O=C(CCCCCCNC(=O)c1ccc(CNC2CC2c2ccc(F)cc2)cc1)NO (stereo not drawn) [Example 32, 4-(((2-(4-fluorophenyl)cyclopropyl)amino)methyl)-N-(7-(hydroxyamino)-7-oxoheptyl)benzamide TFA Salt] | 22% | 41% | 17 nM | –
22 | O=C(NO)c1ccc(CN2CCC(CNC3CC3c3ccccc3)CC2)cc1 (stereo not drawn) [Example 36, N-Hydroxy-4-{4-[(2-phenyl-cyclopropylamino)-methyl]-piperidin-1-ylmethyl}-benzamide TFA Salt] | 53% | 63% | – | –
23 | O=C(NO)c1ccc(CCCN2CCC(CNC3CC3c3cccc(F)c3)CC2)cc1 (stereo not drawn) [Example 49, 4-(3-(4-(((2-(3-fluorophenyl)cyclopropyl)amino)methyl)piperidin-1-yl)propyl)-N-hydroxybenzamide TFA Salt] | 34% | 48% | 62 nM | –
24 | Cc1noc(C)c1-c1ccc(C2CC2NCC2CN(CCCc3cccc(C(=O)NO)c3)C2)cc1 (stereo not drawn) [Example 65, 3-(3-(3-(((2-(4-(3,5-dimethylisoxazol-4-yl)phenyl)cyclopropyl)amino)methyl)azetidin-1-yl)propyl)-N-hydroxybenzamide TFA Salt] | – | – | – | 26 nM
25 | O=C(NO)c1ccc(CCCN2CCc3cc(CNC4CC4c4ccc(F)cc4)ccc3C2)cc1 (stereo not drawn) [Example 78, 4-(3-(6-(((2-(4-fluorophenyl)cyclopropyl)amino)methyl)-3,4-dihydroisoquinolin-2(1H)-yl)propyl)-N-hydroxybenzamide TFA Salt] | 32% | 72% | – | –
26 | Nc1ccccc1NC(=O)/C=C/c1ccc(CNC2CC2c2ccc(F)cc2)cc1 (stereo not drawn) [Example 120] | 16% | 27% | – | –
27 | Nc1ccccc1NC(=O)c1ccc(CCCN2CCC(CNC3CC3c3ccc(C(=O)N4CCCCC4)cc3)CC2)cc1 (stereo not drawn) [Example 125, N-(2-aminophenyl)-4-(3-(4-(((2-(4-(piperidine-1-carbonyl)phenyl)cyclopropyl)amino)methyl)piperidin-1-yl)propyl)benzamide TFA Salt] | 49% | 34% | – | –
28 | Nc1ccccc1NC(=O)c1ccc(CCCN2CC(CNC3CC3c3ccc(F)cc3)C2)cc1 (stereo not drawn) [Example 126, N-(2-aminophenyl)-4-(3-(3-(((2-(4-fluorophenyl)cyclopropyl)amino)methyl)azetidin-1-yl)propyl)benzamide TFA Salt] | 76% | 79% | – | –
